From patent publication US10112929B2, “Lactams as inhibitors of rock” (BRISTOL-MYERS SQUIBB COMPANY, priority 2015, dated 2018)
Structures can show the parent of a compound that is named as a salt.

Molecular target: ROCK2 (Homo sapiens (Human), UniProt O75116)
Experiment: biochemical
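Note: rho kinase enzyme reaction halted with EDTA, phospho- and non-phospho peptide separated for read-out, kinase activity inhibition derived across a dose-response series, DMSO under 2%.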

Sequence of ROCK2 (O75116 whole entry, species assumed): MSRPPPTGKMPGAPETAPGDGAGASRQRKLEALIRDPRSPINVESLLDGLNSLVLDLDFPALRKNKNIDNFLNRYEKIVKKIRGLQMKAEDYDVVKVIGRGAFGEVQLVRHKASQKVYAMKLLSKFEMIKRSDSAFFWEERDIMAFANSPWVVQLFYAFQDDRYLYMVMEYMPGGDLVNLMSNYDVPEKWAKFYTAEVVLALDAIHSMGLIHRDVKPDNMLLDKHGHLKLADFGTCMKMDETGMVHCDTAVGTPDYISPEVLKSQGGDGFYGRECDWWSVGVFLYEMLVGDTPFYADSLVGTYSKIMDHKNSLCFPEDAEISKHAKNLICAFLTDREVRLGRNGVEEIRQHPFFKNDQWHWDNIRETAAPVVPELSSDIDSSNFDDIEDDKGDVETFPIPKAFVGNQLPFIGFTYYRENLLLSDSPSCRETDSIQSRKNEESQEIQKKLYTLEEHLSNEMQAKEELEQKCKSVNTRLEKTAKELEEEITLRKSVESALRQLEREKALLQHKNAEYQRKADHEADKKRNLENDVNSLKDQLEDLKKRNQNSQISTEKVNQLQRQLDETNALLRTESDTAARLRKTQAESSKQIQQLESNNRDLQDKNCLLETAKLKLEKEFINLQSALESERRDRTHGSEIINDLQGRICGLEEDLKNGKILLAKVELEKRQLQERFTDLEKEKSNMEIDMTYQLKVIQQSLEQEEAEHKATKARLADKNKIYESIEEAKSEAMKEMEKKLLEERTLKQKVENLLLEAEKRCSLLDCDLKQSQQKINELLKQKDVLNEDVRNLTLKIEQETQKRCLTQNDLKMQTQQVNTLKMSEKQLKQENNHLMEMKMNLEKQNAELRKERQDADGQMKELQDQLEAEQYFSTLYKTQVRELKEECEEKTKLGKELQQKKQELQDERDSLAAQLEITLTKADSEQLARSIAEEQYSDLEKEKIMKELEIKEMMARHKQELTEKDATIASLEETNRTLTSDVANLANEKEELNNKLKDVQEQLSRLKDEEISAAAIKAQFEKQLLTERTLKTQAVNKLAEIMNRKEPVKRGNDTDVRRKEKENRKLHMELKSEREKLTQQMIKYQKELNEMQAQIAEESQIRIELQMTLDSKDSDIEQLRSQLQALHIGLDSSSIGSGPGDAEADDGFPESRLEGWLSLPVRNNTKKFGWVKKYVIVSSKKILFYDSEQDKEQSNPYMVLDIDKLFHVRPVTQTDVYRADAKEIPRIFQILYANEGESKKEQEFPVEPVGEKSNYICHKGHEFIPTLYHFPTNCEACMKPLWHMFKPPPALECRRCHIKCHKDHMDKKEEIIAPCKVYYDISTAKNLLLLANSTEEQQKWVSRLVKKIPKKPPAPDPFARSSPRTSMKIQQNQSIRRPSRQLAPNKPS

| SMILES | IC50 [nM] |
| --- | --- |
| COc1c(F)cccc1NC1CCN(c2ccc(-c3cn[nH]c3)c(OC(F)F)c2)C1=O (single isomer, unassigned) [Example 32, 1-(3-(difluoromethoxy)-4-(1H-pyrazol-4-yl)phenyl)-3-((3-fluoro-2-methoxyphenyl)amino)pyrrolidin-2-one] | 100 to 2200 |
| O=C1C(Nc2ccc3c(c2)OC(F)(F)O3)CCN1c1ccc(-c2cn[nH]c2)cc1 (single isomer, unassigned) [Example 53, 1-(4-(1H-pyrazol-4-yl)phenyl)-3-((2,2-difluorobenzo[d][1,3]dioxol-5-yl)amino)pyrrolidin-2-one] | 100 to 2200 |
| CCc1cc(N2CCC(Nc3ccc(F)c(OC)c3)C2=O)ncc1-c1cn[nH]c1 (single isomer, unassigned) [Example 210, 1-(4-ethyl-5-(1H-pyrazol-4-yl)pyridin-2-yl)-3-((4-fluoro-3-methoxyphenyl)amino) pyrrolidin-2-one] | 100 to 2200 |
| COc1nc(N2CCC(Nc3cccc(S(=O)(=O)N4CCOCC4)c3)C2=O)ccc1-c1cn[nH]c1 (racemic) [Example 264, 1-(6-methoxy-5-(1H-pyrazol-4-yl)pyridin-2-yl)-3-((3-(morpholinosulfonyl)phenyl)amino)pyrrolidin-2-one] | 10 to 100 |
| COc1cccc(NC2CCN(c3ccc(-c4cn[nH]c4)cc3)C2=O)c1C (single isomer, unassigned) [Example 325, 1-(4-(1H-pyrazol-4-yl)phenyl)-3-((3-methoxy-2-methylphenyl)amino) pyrrolidin-2-one] | 10 to 100 |
| COc1cc(F)cc(NC2CCN(c3ccc(-c4cn[nH]c4)c(C(F)(F)F)c3)C2=O)c1 (single isomer, unassigned) [Example 369, 1-(4-(1H-pyrazol-4-yl)-3-(trifluoromethyl)phenyl)-3-((3-fluoro-5-methoxyphenyl)amino)pyrrolidin-2-one] | 100 to 2200 |
| Nc1cccc(OC2CCN(c3ccc(-c4cn[nH]c4)cc3)C2=O)c1 (stereo not shown) [Example 113, 1-(4-(1H-pyrazol-4-yl)phenyl)-3-(3-aminophenoxy)pyrrolidin-2-one, TFA] | 10 to 100 |
| COc1cccc(NC2CCN(c3ccc(-c4ccnc5[nH]ccc45)cc3)C2=O)c1 (single isomer, unassigned) [Example 81, 1-(4-(1H-pyrrolo[2,3-b]pyridin-4-yl)phenyl)-3-((3-methoxyphenyl)amino)pyrrolidin-2-one] | 10 to 100 |
| COc1nc(N2CCC(N3CCOC[C@H]3C)C2=O)ccc1-c1cn[nH]c1 (mixture of isomers) [Example 274, 1-(6-methoxy-5-(1H-pyrazol-4-yl)pyridin-2-yl)-3-((R)-3-methylmorpholino) pyrrolidin-2-one] | 10 to 100 |
| COc1cccc2c1N(C1CCN(c3ccc(-c4cn[nH]c4)cc3)C1=O)CC2 (single isomer, unassigned) [Example 52, 1-(4-(1H-pyrazol-4-yl)phenyl)-3-(7-methoxyindolin-1-yl)pyrrolidin-2-one] | 100 to 2200 |
| COc1cc(F)cc(OC2CCN(c3ccc(-c4cn[nH]c4)c(OC)n3)C2=O)c1 (single isomer, unassigned) [Example 172, 3-(3-fluoro-5-methoxyphenoxy)-1-(6-methoxy-5-(1H-pyrazol-4-yl)pyridin-2-yl)pyrrolidin-2-one] | 10 to 100 |
| COc1cccc(NC2CCN(c3ccc(-c4cn[nH]c4)c(C#N)c3)C2=O)c1 (single isomer, unassigned) [Example 377, 5-(3-((3-methoxyphenyl)amino)-2-oxopyrrolidin-1-yl)-2-(1H-pyrazol-4-yl)benzonitrile] | 100 to 2200 |
| CCc1cc(N2CCC(Nc3ccc(F)c(OCC4CC4)c3)C2=O)ncc1-c1cn[nH]c1 (racemic) [Example 213, 3-((3-(cyclopropylmethoxy)-4-fluorophenyl)amino)-1-(4-ethyl-5-(1H-pyrazol-4-yl)pyridin-2-yl)pyrrolidin-2-one] | 100 to 2200 |
| COc1ccc2c(c1)CCN2C1CCN(c2ccc(-c3cn[nH]c3)cc2)C1=O (single isomer, unassigned) [Example 42, 1-(4-(1H-pyrazol-4-yl)phenyl)-3-(5-methoxyindolin-1-yl)pyrrolidin-2-one] | 10 to 100 |
| O=C1C(c2cccc(F)c2)CCN1c1ccc(-c2cn[nH]c2)cc1 (stereo not shown) [Example 102, 1-(4-(1H-pyrazol-4-yl)phenyl)-3-(3-fluorophenyl)pyrrolidin-2-one] | 100 to 2200 |
| COc1nc(N2CCC(N(C)C3CCN(C)CC3)C2=O)ccc1-c1cn[nH]c1 (racemic) [Example 279, 1-(6-methoxy-5-(1H-pyrazol-4-yl)pyridin-2-yl)-3-(methyl(1-methylpiperidin-4-yl)amino)pyrrolidin-2-one] | 100 to 2200 |
| COc1c(F)cccc1NC1CCN(c2ccc(-c3cn[nH]c3)cc2)C1=O (single isomer, unassigned) [Example 16, 1-(4-(1H-pyrazol-4-yl)phenyl)-3-((3-fluoro-2-methoxyphenyl)amino)pyrrolidin-2-one] | 100 to 2200 |
| COc1cccc(NC2CCN(c3ccc(-c4ccnc5[nH]ccc45)cc3)C2=O)c1 (single isomer, unassigned) [Example 80, 1-(4-(1H-pyrrolo[2,3-b]pyridin-4-yl)phenyl)-3-((3-methoxyphenyl)amino) pyrrolidin-2-one] | 100 to 2200 |
| COc1nc(N2CCC(Nc3ccc(F)c(OCC4CC4)c3)C2=O)ccc1-c1cn[nH]c1 (single isomer, unassigned) [Example 217, 3-((3-(cyclopropylmethoxy)-4-fluorophenyl)amino)-1-(6-methoxy-5-(1H-pyrazol-4-yl)pyridin-2-yl)pyrrolidin-2-one] | 10 to 100 |
| Cc1cccc(OC2CCN(c3ccc(-c4cn[nH]c4)cc3)C2=O)c1 (stereo not shown) [Example 109, 1-(4-(1H-pyrazol-4-yl)phenyl)-3-(m-tolyloxy)pyrrolidin-2-one] | 100 to 2200 |
| COc1ccc(NC2CCN(c3ccc(-c4cn[nH]c4)cc3F)C2=O)cc1F (single isomer, unassigned) [Example 344, 1-(2-fluoro-4-(1H-pyrazol-4-yl)phenyl)-3-((3-fluoro-4-methoxyphenyl)amino) pyrrolidin-2-one] | 100 to 2200 |
| COc1nc(N2CCC(Nc3cnn(C(C)C)c3)C2=O)ccc1-c1cn[nH]c1 (racemic) [Example 272, 3-((1-isopropyl-1H-pyrazol-4-yl)amino)-1-(6-methoxy-5-(1H-pyrazol-4-yl)pyridin-2-yl)pyrrolidin-2-one] | 100 to 2200 |
| O=C1C(Nc2cccc(OC(F)F)c2)CCN1c1ccc(-c2cn[nH]c2)cn1 (single isomer, unassigned) [Example 322, 1-(5-(1H-pyrazol-4-yl)pyridin-2-yl)-3-((3-(difluoromethoxy)phenyl)amino) pyrrolidin-2-one] | 10 to 100 |
| COc1cccc(OC2CCN(c3ccc(-c4cn[nH]c4)cc3)C2=O)c1 (stereo not shown) [Example 108, 1-(4-(1H-Pyrazol-4-yl)phenyl)-3-(3-methoxyphenoxy)pyrrolidin-2-one, TFA] | 10 to 100 |

Continued, values first:

| IC50 [nM] | SMILES |
| --- | --- |
| 10 to 100 | COc1cc(F)cc(NC2CCN(c3ccc(-c4cn[nH]c4)c(C)n3)C2=O)c1 (single isomer, unassigned) [Example 192, 3-((3-fluoro-5-methoxyphenyl)amino)-1-(6-methyl-5-(1H-pyrazol-4-yl)pyridin-2-yl)pyrrolidin-2-one] |
| 10 to 100 | O=C1C(c2ccccc2)CCN1c1ccc(-c2cn[nH]c2)cc1 (stereo not shown) [Example 101, 1-(4-(1H-pyrazol-4-yl)phenyl)-3-phenylpyrrolidin-2-one] |
| < 10 | COc1cc(F)cc(NC2CCN(c3ccc(-c4cn[nH]c4)cn3)C2=O)c1 (stereo not shown) [Example 82, 1-(5-(1H-pyrazol-4-yl)pyridin-2-yl)-3-((3-fluoro-5-methoxyphenyl)amino)pyrrolidin-2-one] |
| 10 to 100 | COc1nc(N2CCC(N3CCOc4ccccc43)C2=O)ccc1-c1cn[nH]c1 (single isomer, unassigned) [Example 229, 3-(2H-benzo[b][1,4]oxazin-4(3H)-yl)-1-(6-methoxy-5-(1H-pyrazol-4-yl)pyridin-2-yl)pyrrolidin-2-one] |
| < 10 | CCOc1cc(N2CCC(Nc3cc(F)cc(OC)c3)C2=O)ccc1-c1cn[nH]c1 (single isomer, unassigned) [Example 36, 1-(3-ethoxy-4-(1H-pyrazol-4-yl)phenyl)-3-((3-fluoro-5-methoxyphenyl)amino)pyrrolidin-2-one] |
| < 10 | COc1cc(NC2CCN(c3ccc(-c4cn[nH]c4)cc3)C2=O)ccc1F (stereo not shown) [Example 4, 1-(4-(1H-pyrazol-4-yl)phenyl)-3-((4-fluoro-3-methoxyphenyl)amino)pyrrolidin-2-one] |
| < 10 | COc1cc(F)cc(NC2CCN(c3ccc(-c4cn[nH]c4)cc3)C2=O)c1 (stereo not shown) [Example 3, 1-(4-(1H-pyrazol-4-yl)phenyl)-3-((3-fluoro-5-methoxyphenyl)amino)pyrrolidin-2-one] |
| < 10 | COc1cc(F)cc(OC2CCN(c3ccc(-c4cn[nH]c4)c(OC)n3)C2=O)c1 (single isomer, unassigned) [Example 173, 3-(3-fluoro-5-methoxyphenoxy)-1-(6-methoxy-5-(1H-pyrazol-4-yl)pyridin-2-yl)pyrrolidin-2-one] |
| < 10 | COc1cccc(NC2CCN(c3ccc(-c4ccncc4F)c(OC)n3)C2=O)c1 (stereo not shown) [Example 118, 1-(3′-Fluoro-2-methoxy-[3,4′-bipyridin]-6-yl)-3-((3-methoxyphenyl)amino) pyrrolidin-2-one] |
| < 10 | COc1c(F)cccc1NC1CCN(c2ccc(-c3cn[nH]c3)cc2)C1=O (single isomer, unassigned) [Example 15, 1-(4-(1H-pyrazol-4-yl)phenyl)-3-((3-fluoro-2-methoxyphenyl)amino)pyrrolidin-2-one] |
| < 10 | COc1cccc(NC2CCN(c3ccc(-c4cn[nH]c4)cc3)C2=O)c1 (stereo not shown) [Example 63, 1-(4-(1H-pyrazol-4-yl)phenyl)-3-((3-methoxyphenyl)amino)pyrrolidin-2-one] |
| < 10 | COc1cc(N2CCC(Nc3cccc(F)c3)C2=O)ccc1-c1cn[nH]c1 (stereo not shown) [Example 72, 3-((3-fluorophenyl)amino)-1-(3-methoxy-4-(1H-pyrazol-4-yl)phenyl)pyrrolidin-2-one] |
| < 10 | COc1cc(F)cc(NC2CCN(c3ccc(-c4cn[nH]c4)cc3)C2=O)c1 (single isomer, unassigned) [Example 26, 1-(4-(1H-pyrazol-4-yl)phenyl)-3-((3-fluoro-5-methoxyphenyl)amino)pyrrolidin-2-one] |
